This is an account of results in patent US10214519B2, “Phosphatidylinositol 3-kinase inhibitors” (Gilead Sciences, Inc., priority 2016, dated 2019).

A value given as a limit tells only on which side of the number the result lay.

For this experiment, the target named is PI3Kβ (Homo sapiens (Human), UniProt P42338). The experiment in a line: PI3K isoform TR-FRET enzymatic assay (PI3Kβ). Type of experiment: biochemical. The following applies: 2× Km ATP, 30 minutes at 25° C. The method, then:
The compounds of formula (I) were characterized for their enzymatic activity against the PI3K isoforms. The activities were measured using a time-resolved fluorescence resonance energy transfer (TR-FRET) assay. TR-FRET monitored the formation of 3,4,5-inositol triphosphate molecule that competed with fluorescently labeled PIP3 for binding to the GRP-1 pleckstrin homology domain protein.
Class I PI3K isoforms were expressed and purified as heterodimeric recombinant proteins. All assay reagents and buffers for the TR-FRET assay were purchased from Millipore. […] The compounds were added to the assay solution and incubated for 30 minutes at 25° C. The reactions were terminated with a final concentration of 10 mM EDTA, 10 nM labeled-PIP3, and 35 nM Europium labeled GRP-1 detector protein before reading TR-FRET on an Envision plate reader (Ex: 340 nm; Em: 615/665 nm; 100 μs delay and 500 μs read window).
The results were normalized based on positive (1 μM wortmanin) and negative (DMSO) controls, and the IC50 values for PI3K α, β, δ, and γ were calculated from the fit of the dose-response curves to a four-parameter equation.
(TR-FRET usually uses a lanthanide donor and a delayed reading to cut background.)

Sequence of PI3Kβ (P42338 whole entry, the tested form may be a part, canonical isoform): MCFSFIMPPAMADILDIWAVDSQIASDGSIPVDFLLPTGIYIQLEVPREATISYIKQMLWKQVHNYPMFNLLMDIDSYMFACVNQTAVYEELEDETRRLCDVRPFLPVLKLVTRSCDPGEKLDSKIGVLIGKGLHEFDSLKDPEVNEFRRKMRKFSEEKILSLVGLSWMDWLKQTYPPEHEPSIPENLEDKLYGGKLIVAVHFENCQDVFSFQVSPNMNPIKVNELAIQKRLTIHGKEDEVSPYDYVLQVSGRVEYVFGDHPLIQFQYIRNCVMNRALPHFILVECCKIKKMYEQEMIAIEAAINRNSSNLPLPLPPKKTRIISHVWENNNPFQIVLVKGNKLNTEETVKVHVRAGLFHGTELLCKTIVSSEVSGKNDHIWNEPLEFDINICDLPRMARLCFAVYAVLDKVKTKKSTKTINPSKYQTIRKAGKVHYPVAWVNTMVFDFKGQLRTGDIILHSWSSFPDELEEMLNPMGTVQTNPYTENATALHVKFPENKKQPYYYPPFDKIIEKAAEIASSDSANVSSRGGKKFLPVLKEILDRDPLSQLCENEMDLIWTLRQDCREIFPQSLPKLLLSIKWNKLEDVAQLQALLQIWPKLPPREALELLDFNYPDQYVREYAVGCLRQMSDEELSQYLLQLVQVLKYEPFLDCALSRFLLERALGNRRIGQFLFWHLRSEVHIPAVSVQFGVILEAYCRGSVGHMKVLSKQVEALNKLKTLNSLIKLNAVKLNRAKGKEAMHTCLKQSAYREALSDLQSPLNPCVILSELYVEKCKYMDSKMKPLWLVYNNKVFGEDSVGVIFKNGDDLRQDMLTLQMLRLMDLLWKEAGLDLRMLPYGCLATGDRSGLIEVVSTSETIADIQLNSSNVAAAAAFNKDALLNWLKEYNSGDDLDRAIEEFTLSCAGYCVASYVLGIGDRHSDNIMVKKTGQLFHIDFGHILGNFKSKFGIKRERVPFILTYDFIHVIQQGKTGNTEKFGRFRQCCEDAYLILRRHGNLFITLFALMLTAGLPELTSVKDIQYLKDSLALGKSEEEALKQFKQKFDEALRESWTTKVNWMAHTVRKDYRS
Sequence of PI3Kβ (P27986 whole entry partner, the tested form may be a part, canonical isoform): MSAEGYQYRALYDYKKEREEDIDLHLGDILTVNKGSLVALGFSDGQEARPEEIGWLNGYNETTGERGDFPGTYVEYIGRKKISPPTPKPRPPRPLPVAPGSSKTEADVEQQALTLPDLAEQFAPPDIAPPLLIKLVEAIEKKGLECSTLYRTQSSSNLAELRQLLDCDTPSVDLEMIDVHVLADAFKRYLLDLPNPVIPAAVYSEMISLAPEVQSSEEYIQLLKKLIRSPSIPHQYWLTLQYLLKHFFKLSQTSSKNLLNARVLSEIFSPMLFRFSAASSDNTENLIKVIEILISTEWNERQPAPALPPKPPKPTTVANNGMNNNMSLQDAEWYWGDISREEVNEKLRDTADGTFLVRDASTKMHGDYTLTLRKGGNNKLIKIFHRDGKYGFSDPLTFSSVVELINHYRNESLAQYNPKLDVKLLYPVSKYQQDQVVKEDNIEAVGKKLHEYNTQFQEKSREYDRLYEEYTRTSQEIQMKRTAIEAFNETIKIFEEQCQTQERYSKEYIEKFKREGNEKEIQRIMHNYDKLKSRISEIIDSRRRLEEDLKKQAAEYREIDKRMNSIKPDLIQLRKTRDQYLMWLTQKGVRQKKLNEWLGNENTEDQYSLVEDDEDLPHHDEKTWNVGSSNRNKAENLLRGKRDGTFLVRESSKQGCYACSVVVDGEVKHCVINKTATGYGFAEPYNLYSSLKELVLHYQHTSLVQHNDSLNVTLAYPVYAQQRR

What is called IC50 is the concentration at which inhibition is half-maximal. The low end stands for greater potency in that assay, the high end for weaker potency in that assay. `Fc1ccc2c(-n3c(C4CC4)nc4c(-c5nnc[nH]5)cc(N5CCOCC5)cc43)ccnc2c1F` [Example 143, 4-[2-cyclopropyl-3-(7,8-difluoroquinolin-4-yl)-7-(4H-1,2,4-triazol-3-yl)benzimidazol-5-yl]morpholine] showed a half-inhibitory concentration (IC50) of 84 nM.

For `Cc1nc2c(-c3nccs3)cc(N3CCOCC3)cc2n1-c1ccnc2c(Cl)cccc12` [Example 244, 4-[3-(8-chloroquinolin-4-yl)-2-methyl-7-(1,3-thiazol-2-yl)benzimidazol-5-yl]morpholine], half-maximal inhibition (IC50) required 9 nM.

On to `Cc1nc2c(-c3nnc[nH]3)cc(N3CCOCC3)cc2n1-c1ccnc2c(Cl)cccc12` (atropisomer, axis not shown) [Compound 361, 4-[3-(8-chloroquinolin-4-yl)-2-methyl-7-(4H-1,2,4-triazol-3-yl)benzimidazol-5-yl]morpholine], for which it took 2 nM to reach half-maximal inhibition (IC50).

In turn, `Cc1nc2c(-c3ccncc3)cc(N3CCOCC3)cc2n1-c1ccnc2c(Cl)cccc12` [Example 319, 4-[3-(8-chloroquinolin-4-yl)-2-methyl-7-pyridin-4-ylbenzimidazol-5-yl]morpholine] showed an IC50 of 8600 nM. Against the preceding compound, the IC50 is about 4300-fold higher.

`Cc1nc2c(-c3nnc[nH]3)cc(N3CCOCC3)cc2n1-c1ccnc2c(Cl)c(F)ccc12` [Example 39, 4-(1-(8-chloro-7-fluoroquinolin-4-yl)-2-methyl-4-(4H-1,2,4-triazol-3-yl)-1H-benzo[d]imidazol-6-yl)morpholine]: the IC50 came out at 11 nM.

Compound `Fc1ccc(F)c2c(-n3cnc4c(-c5ncco5)cc(N5CCOCC5)cc43)ccnc12` [Example 236, 4-[3-(5,8-difluoroquinolin-4-yl)-7-(1,3-oxazol-2-yl)benzimidazol-5-yl]morpholine] showed a half-maximal inhibitory concentration (IC50) of 5 nM.

With `Cc1cccc2nccc(-n3c(C)nc4c(-c5nnc[nH]5)cc(N5CCOCC5)cc43)c12` (atropisomer, axis not shown) [Compound 362, 4-[2-methyl-3-(5-methylquinolin-4-yl)-7-(4H-1,2,4-triazol-3-yl)benzimidazol-5-yl]morpholine], inhibition was half-maximal at 28 nM (IC50).

Compound `Cc1cccc2c(-n3c(C)nc4c(-c5nnc[nH]5)cc(N5CCOCC5)cc43)ccnc12` [Example 109, 4-[2-methyl-3-(8-methylquinolin-4-yl)-7-(4H-1,2,4-triazol-3-yl)benzimidazol-5-yl]morpholine] showed an IC50 of 13 nM.

Consider `Fc1ccc2c(-n3cnc4c(-c5nnc[nH]5)cc(N5CCOCC5)cc43)ccnc2c1` [Example 53, 4-(l-(7-fluoroquinolin-4-yl)-4-(4H-1,2,4-triazol-3-yl)-1H-benzo[d]imidazol-6-yl)morpholine], for which 15 nM corresponded to half-maximal inhibition (IC50).

For `Fc1ccc(F)c2c(-n3c(C4COC4)nc4c(-c5nnc[nH]5)cc(N5CCOCC5)cc43)ccnc12` [Example 123, 4-[3-(5,8-difluoroquinolin-4-yl)-2-(oxetan-3-yl)-7-(4H-1,2,4-triazol-3-yl)benzimidazol-5-yl]morpholine], the IC50 stood at 110 nM. This IC50 is about 7.3-fold higher than that of the compound before.

`CCc1nc2c(-c3cnc(Cl)[nH]3)cc(N3CCOCC3)cc2n1-c1ccnc2c(F)ccc(F)c12` (atropisomer, axis not shown) [Compound 346, 4-[7-(2-chloro-1H-imidazol-5-yl)-3-(5,8-difluoroquinolin-4-yl)-2-ethylbenzimidazol-5-yl]morpholine] showed an IC50 of 10000 nM.

`Cc1nc2c(-c3ccccc3)cc(N3CCOCC3)cc2n1-c1ccnc2c(-c3ccccc3)cccc12` [Example 312, 4-(2-methyl-4-phenyl-1-(8-phenylquinolin-4-yl)-1H-benzo[d]imidazol-6-yl)morpholine] gave an IC50 of 967 nM.

Turning to `Cc1nc2c(-c3ncco3)cc(N3CCOCC3)cc2n1-c1ccnc2c(F)cccc12` (atropisomer, axis not shown) [Example 341, 4-[3-(8-fluoroquinolin-4-yl)-2-methyl-7-(1,3-oxazol-2-yl)benzimidazol-5-yl]morpholine], the IC50 turned out to be 6 nM.

For `Clc1cccc2c(-n3c(C4CCCO4)nc4c(-c5nnc[nH]5)cc(N5CCOCC5)cc43)ccnc12` (stereo not shown) [Example 102, 4-[3-(8-chloroquinolin-4-yl)-2-(oxolan-2-yl)-7-(4H-1,2,4-triazol-3-yl)benzimidazol-5-yl]morpholine], the IC50 is 21 nM.

In turn, `Cc1nc2c(-c3cnc(Cl)[nH]3)cc(N3CCOCC3)cc2n1-c1ccnc2c(F)ccc(Cl)c12` [Example 309, 4-[3-(5-chloro-8-fluoroquinolin-4-yl)-7-(2-chloro-1H-imidazol-5-yl)-2-methylbenzimidazol-5-yl]morpholine] returned an IC50 of 50 nM.

Compound `CCCc1nc2c(-c3ncco3)cc(N3CCOCC3)cc2n1-c1ccnc2c(F)cccc12` [Example 223, 4-[3-(8-fluoroquinolin4-yl)-7-(1,3-oxazol-2-yl)-2-propylbenzimidazol-5-yl]morpholine] came in with an IC50 of 9 nM. Compared with the last compound, the IC50 is about 5.6-fold lower.

`CCc1nc2c(-c3cnc(Cl)[nH]3)cc(N3CCOCC3)cc2n1-c1ccnc2c(F)cccc12` [Example 284, 4-[7-(2-chloro-1H-imidazol-5-yl)-2-ethyl-3-(8-fluoroquinolin-4-yl)benzimidazol-5-yl]morpholine] came in with an IC50 of 13 nM.

Regarding `Cc1nc2c(-c3nnc[nH]3)cc(N3CCOCC3)cc2n1-c1cc(-c2ccccc2)nc2ccccc12` [Example 59, 4-[2-methyl-3-(2-phenylquinolin-4-yl)-7-(4H-1,2,4-triazol-3-yl)benzimidazol-5-yl]morpholine], the IC50 worked out at 130 nM.

As for `Cc1nc2c(-c3nnc[nH]3)cc(N3CCOCC3)cc2n1-c1ccnc2c(F)c(F)ccc12` [Example 142, 4-[3-(7,8-difluoroquinolin-4-yl)-2-methyl-7-(4H-1,2,4-triazol-3-yl)benzimidazol-5-yl]morpholine], the IC50 stood at 15 nM.

The compound `Cc1cc(-c2cc(N3CCOCC3)cc3c2nc(C)n3-c2ccnc3c(Cl)cccc23)n[nH]1` [Example 268, 4-[3-(8-chloroquinolin-4-yl)-2-methyl-7-(5-methyl-1H-pyrazol-3-yl)benzimidazol-5-yl]morpholine] came in with an IC50 of 317 nM. This IC50 is about 21-fold higher than that of the compound before.

In the case of `Cc1nnc(-c2cc(N3CCOCC3)cc3c2nc(C)n3-c2c(Cl)cnc3c(Cl)cccc23)[nH]1` (atropisomer, axis not shown) [Compound 366, 4-(1-(3,8-dichloroquinolin-4-yl)-2-methyl-4-(5-methyl-4H-1,2,4-triazol-3-yl)-1H-benzo[d]imidazol-6-yl)morpholine], the IC50 came out at 17 nM. This IC50 is about 19-fold lower than that of the compound before.

Compound `FC1(c2nc3c(-c4nnc[nH]4)cc(N4CCOCC4)cc3n2-c2ccnc3c(Cl)cccc23)CC1` [Example 54, 4-(1-(8-chloroquinolin-4-yl)-2-(1-fluorocyclopropyl)-4-(4H-1,2,4-triazol-3-yl)-1H-benzo[d]imidazol-6-yl)morpholine] came in with an IC50 of 14 nM.

The compound `Cc1nc2c(-c3cnc[nH]3)cc(N3CCOCC3)cc2n1-c1ccnc2c(Cl)cccc12` [Example 266, 4-[3-(8-chloroquinolin-4-yl)-7-(1H-imidazol-5-yl)-2-methylbenzimidazol-5-yl]morpholine] gave an IC50 of 11 nM.

`Cc1nc2c(-c3ccn(S(C)(=O)=O)c3)cc(N3CCOCC3)cc2n1-c1ccnc2c(Cl)cccc12` [Example 264, 4-[3-(8-chloroquinolin-4-yl)-2-methyl-7-(1-methylsulfonylpyrrol-3-yl)benzimidazol-5-yl]morpholine]: it took 770 nM to reach half-maximal inhibition (IC50).

`Fc1ccc(F)c2c(-n3c(C4CC4)nc4c(-c5cnc(Cl)[nH]5)cc(N5CCOCC5)cc43)ccnc12` (atropisomer, axis not shown) [Compound 342, 4-[7-(2-chloro-1H-imidazol-5-yl)-2-cyclopropyl-3-(5,8-difluoroquinolin-4-yl)benzimidazol-5-yl]morpholine] gave an IC50 of over 10000 nM.

With `Fc1ccc(F)c2c(-n3c(CC4CC4)nc4c(-c5ncco5)cc(N5CCOCC5)cc43)ccnc12` [Example 221, 4-[2-(cyclopropylmethyl)-3-(5,8-difluoroquinolin-4-yl)-7-(1,3-oxazol-2-yl)benzimidazol-5-yl]morpholine], the IC50 turned out to be 11 nM.

Compound `Cc1nc2c(-c3nnc(C(C)C)[nH]3)cc(N3CCOCC3)cc2n1-c1ccnc2c(Cl)cccc12` [Example 138, 4-[3-(8-chloroquinolin-4-yl)-2-methyl-7-(5-propan-2-yl-4H-1,2,4-triazol-3-yl)benzimidazol-5-yl]morpholine] registered an IC50 of 140 nM.

Regarding `Cc1nc2c(-c3ccc[nH]3)cc(N3CCOCC3)cc2n1-c1ccnc2c(Cl)cccc12` [Example 261, 4-[3-(8-chloroquinolin-4-yl)-2-methyl-7-(1H-pyrrol-2-yl)benzimidazol-5-yl]morpholine], it took 24 nM to reach half-maximal inhibition (IC50). Against the preceding compound, the IC50 is about 5.8-fold lower.

`Cc1nc2c(-c3nnc(Cl)[nH]3)cc(N3CCOCC3)cc2n1-c1ccnc2c(Cl)ccc(F)c12` [Example 170, 4-(4-(5-chloro-4H-1,2,4-triazol-3-yl)-1-(8-chloro-5-fluoroquinolin-4-yl)-2-methyl-1H-benzo[d]imidazol-6-yl)morpholine] had an IC50 of 7 nM. Against the preceding compound, the IC50 is about 3.4-fold lower.

For `Cc1nc2c(-c3nnc[nH]3)cc(N3CCOCC3)cc2n1-c1ccnc2c(F)c(F)ccc12` (atropisomer, axis not shown) [Compound 353, 4-[3-(7,8-difluoroquinolin-4-yl)-2-methyl-7-(4H-1,2,4-triazol-3-yl)benzimidazol-5-yl]morpholine], the IC50 was found to be 270 nM.

Consider `Cc1nnc(-c2cc(N3CCOCC3)cc3c2nc(C)n3-c2ccnc3c(Cl)cccc23)[nH]1` [Example 129, 4-[3-(8-chloroquinolin-4-yl)-2-methyl-7-(5-methyl-4H-1,2,4-triazol-3-yl)benzimidazol-5-yl]morpholine], for which the IC50 turned out to be 23 nM.
